Laboratory results taken from article PMC7469393, “Binding of 2-(Triazolylthio)acetamides to Metallo-β-lactamase CcrA Determined with NMR” (ACS Omega, 2020).

Key:
CcrA [1] = target: T1, CcrA (Bacteroides fragilis, UniProt P25910); test: 1H, […] HSQC NMR titration, chemical shift perturbation, fast exchange; assay type: binding
CcrA [2] = target: T1, CcrA; test: 1H, […] HSQC NMR titration, slow exchange (relative peak intensities); assay type: binding

T1 sequence (P25910 19-249): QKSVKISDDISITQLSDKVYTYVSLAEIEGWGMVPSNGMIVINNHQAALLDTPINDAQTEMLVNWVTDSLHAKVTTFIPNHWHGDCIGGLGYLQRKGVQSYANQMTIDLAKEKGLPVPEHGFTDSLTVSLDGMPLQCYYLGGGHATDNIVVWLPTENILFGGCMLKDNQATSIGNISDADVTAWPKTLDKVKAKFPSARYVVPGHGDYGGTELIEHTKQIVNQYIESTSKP

For O=C(CSc1nnc(-c2ccccc2C(=O)O)[nH]1)Nc1nc2ccccc2s1 [compound 4, 4], which Kd (CcrA [1]) is on record?
Its Kd is 11 ± 11 µM.

Which Kd (CcrA [2]) does the source give for O=C(CSc1nnc(-c2ccccc2C(=O)O)[nH]1)Nc1ccc(Cl)cc1 [compound 6, 6] here?
The Kd was roughly 2.3 µM.

With O=C(CSc1nnc(-c2ccccc2C(=O)O)[nH]1)Nc1ccccc1 [compound 5, 5] as the compound, how does the Kd (CcrA [1]) read?
Its Kd is 34 ± 43 µM.
